Test [1] relates to H1975 (non-small-cell lung cancer cells. EGFR L858K/T790M). Briefly: Tumor cell proliferation and growth inhibition analysis (Cell Titer-Glo, 72 h), H1975. The format is cell-based. To be noted: Homo sapiens. An excerpt:
(§1) […] cell proliferation assay is described as follows.
(§2) Tumor cell proliferation and growth inhibition analysis: H1975 (non-small-cell lung cancer cells. EGFR L858K/T790M) and A431 (human epidermal cancer cells, EGFR wild type) cells were commercially available from the ATCC cell bank. […] The growth medium for A431 cells was DMEM (GIBCO, 11995-065), 10% fetal bovine serum. The influence exerted by the compounds on the proliferation activity of tumor cells was detected by Cell Titer-Glo assay. Tumor cells were exposed to the treatment conditions for 72 h, and the cell density used in each experiment for each cell line was adjusted according to the 72 h cell growth curve. 10 concentration gradients and three-fold dilutions (0.5 nM-10 μM) were set for compounds to be tested, and 3 parallel controls were used for each concentration value.
(§3) Trypsin was used for digesting cells in the logrithmic growth phase to prepare cell suspension, which was counted by a Roche counter and appropriately diluted with complete medium to a final cell concentration of 1˜2×10^3 cell/mL. 384-well plates were seeded with cells, and 22.6 μL were seeded for each well. 3 parallels were set. The plates were incubated in an incubator with 5% CO2 at 37° C. overnight. The compounds were dissolved in DMSO to prepare […] mother liquor. […] 2 μL of compound solution was added into 18 μL of culture medium, and fully mixed. Then 2 μL of mixed solution of compound and culture medium was added into 18 μL of culture medium, and fully mixed. 2.4 μL of mixtures were added into a 384-well plates. […] After cultivation for 72 h, 24 μL of Cell Titer-Glo reagent was added. The contents were mixed on an orbital shaker for 2 min to induce cell lysis. The 384-well plates were incubated at room temperature for 10 min to stabilize the […] signal value. Data was read by Infinite® M1000 PRO (TECAN), and calculated with GraphPad Prism version 5.0. GI50 value was obtained by adjustment using a non-linear regression model of dose response curves.

For test [2], the system named is A431 (human epidermal cancer cells, EGFR wild type). Briefly: Tumor cell proliferation and growth inhibition analysis (Cell Titer-Glo, 72 h), A431. The format is cell-based. To be noted: A-431, 72 h exposure.
Description: as §1, §2, §3

[3] abbreviates: NCI-H1975, H1975 cells, 72 h exposure, Cell Titer-Glo, read-out: H1975 GI50.

Results on 24 molecules are retold here after US10377747B2, “2-arylamino pyridine, pyrimidine or triazine derivatives, preparation method and use thereof” (Wuxi Shuangliang Biotechnology Co., Ltd., priority 2015, dated 2019).

Like-named read-outs stand apart in the source and are kept apart here. A value given as a limit tells only on which side of the number the result lay.

As usually defined, the GI50 is the concentration at which growth is held to half of that of the control. As for `C=CC(=O)Nc1cc(Nc2nccc(-c3cn(C)c4ccccc34)n2)c(OC)cc1N(C)CCN(C)C` [AZD9291, reference compound], the GI50 in test [1] (NCI-H1975, 72 h, read-out: H1975 GI50 (nM)) is 2.8 nM. Turning to `C=CC(=O)Nc1cc(Nc2nccc(-c3noc4ccccc34)n2)c(OC)cc1N(C)CCN(C)C` [Example 1], the GI50 was 7.3 nM in test [1] (setting [3]) and approximately 110 nM in test [2].

Consider `C=CC(=O)Nc1cc(Nc2nccc(-c3noc4ccccc34)n2)c(OC)cc1N1CCN(C)CC1` [Example 2, N-(5-((4-(benzo[d]isoxazol-3-yl)pyrimidin-2-yl)amino)-4-methoxy-2-(4-methylpiperazin-1-yl)phenyl)acrylamide], for which the GI50 in test [1] (setting [3]) was 168 nM; in test [2], 728 nM. The like results for `C=CC(=O)Nc1cc(Nc2nccc(-c3noc4ccccc34)n2)c(OC)cc1N1CCC(N(C)C)CC1` [Example 3, N-(5-((4-(benzo[d]isoxazol-3-yl)pyrimidin-2-yl)amino)-2-(4-(dimethylamino)piperidin-1-yl)-4-methoxyphenyl)acrylamide] were, in that order, 82.4 nM and 1240 nM. For `C=CC(=O)Nc1cc(Nc2nccc(-c3noc4ccccc34)n2)c(OC)cc1N1CCC[C@H]1CN(C)C` [Example 4, (S)—N-(5-((4-(benzo[d]isoxazol-3-yl)pyrimidin-2-yl)amino)-2-(2-((dimethno)methyl)pyrrolidin-1-yl)-4-methoxyphenyl)acrylamide] the same measures were 844 nM and approximately 63400 nM.

On to `C=CC(=O)Nc1cc(Nc2nccc(-c3noc4ccccc34)n2)c(OC)cc1N1CC2(CCCN2C)C1` [Example 5, N-(5-((4-(benzo[d]isoxazol-3-yl)pyrimidin-2-yl)amino)-4-methoxy-2-(5-methyl-2,5-diazaspiro[3.4]oct-2-yl)phenyl)acrylamide], for which the GI50 in test [1] (setting [3]) is 31.2 nM; in test [2], 1220 nM.

As for `C=CC(=O)Nc1cc(Nc2nccc(-c3noc4ccccc34)n2)c(OC(F)F)cc1N(C)CCN(C)C` [Example 6, N-(5-((4-(benzo[d]isoxazol-3-yl)pyrimidin-2-yl)amino)-4-(difluoromethoxy)-2-((2-(dimethylamino)ethyl)(methyl)amino)phenyl)acrylamide], the GI50 in test [1] (setting [3]) is 4 nM; in test [2] it was 89.1 nM. The like results for `C=CC(=O)Nc1cc(Nc2nccc(-c3noc4ccccc34)n2)c(OC(F)F)cc1N1CCN(C)CC1` [Example 7, N-(5-((4-(benzo[d]isoxazol-3-yl)pyrimidin-2-yl)amino)-4-(difluoromethoxy)-2-(4-methylpiperazin-1-yl)phenyl)acrylamide] were, in that order, 49 nM and approximately 1720 nM. The like results for `C=CC(=O)Nc1cc(Nc2nccc(-c3noc4ccccc34)n2)c(OC(F)F)cc1N1CC(N(C)C)C1` [Example 8, N-(5-((4-(benzo[d]isoxazol-3-yl)pyrimidin-2-yl)amino)-4-(difluoromethoxy)-2-(3-(dimethylamino)azetidin-1-yl)phenyl)acylamide] were, in that order, 26.1 nM and 299 nM. The like results for `C=CC(=O)Nc1cc(Nc2nccc(-c3noc4ccccc34)n2)c(OC(F)F)cc1N1CCC(N(C)C)CC1` [Example 9, N-(5-((4-(benzo[d]isoxazol-3-yl)pyrimidin-2-yl)amino)-4-(difluoromethoxy)-2-(4-(dimethylamino)piperidin-1-yl)phenyl)acrylamide] were, in that order, 24.2 nM and more than 1000 nM. `C=CC(=O)Nc1cc(Nc2nccc(-c3noc4ccccc34)n2)c(OC(F)F)cc1N1CCC[C@H]1CN(C)C` [Example 10]: the GI50 is 285 nM in test [1] (setting [3]) and more than 1000 nM in test [2]. For `C=CC(=O)Nc1cc(Nc2nccc(-c3noc4ccccc34)n2)c(OC(F)F)cc1N1CC2(CCCN2C)C1` [Example 11, N-(5-((4-(benzo[d]isoxazol-3-yl)pyrimidin-2-yl)amino)-4-(difluoromethoxy)-2-(5-methyl-2,5-diazaspiro[3.4]oct-2-yl)phenyl)acrylamide] the same measures were 36 nM and 690 nM.

With `C=CC(=O)Nc1cc(Nc2nccc(-c3cn(C)c4cccnc34)n2)c(OC)cc1N(C)CCN(C)C` [Example 12, N-(2-((2-(dimethylamino)ethyl)(methyl)amino)-4-methoxy-5-((4-(1-methyl-1H-pyrrolo[3,2-b]pyridin-3-yl)pyrimidin-2-yl)amino)phenyl)acrylamide], the GI50 was 6.8 nM in test [1] (setting [3]) and 10200 nM in test [2]. For `C=CC(=O)Nc1cc(Nc2nccc(-c3cn(C)c4cccnc34)n2)c(OC)cc1N1CCN(C)CC1` [Example 13, N-(4-methoxy-5-((4-(1-methyl-H-pyrrolo[3,2-b]pyridin-3-yl)pyrimidin-2-yl)amino)-2-(4-methylpiperazin-1-yl)phenyl)acrylamide] the same measures were 175 nM and 1560 nM. On to `C=CC(=O)Nc1cc(Nc2nccc(-c3cn(C)c4cccnc34)n2)c(OC)cc1N1CC(N(C)C)C1` [Example 14, N-(2-(3-(dimethylamino)azetidin-1-yl)-4-methoxy-5-((4-(1-methyl-1H-pyrrolo[3,2-b]pyridin-3-yl)pyrimidin-2-yl)amino)phenyl)acrylamide], for which the results for the GI50 in test [1] (setting [3]) and in test [2] were 1460 nM and approximately 3520 nM, respectively.

Regarding `C=CC(=O)Nc1cc(Nc2nccc(-c3cn(C)c4cccnc34)n2)c(OC)cc1N1CCC(N(C)C)CC1` [Example 15, N-(2-(4-(dimethylamino)piperidin-1-yl)-4-methoxy-5-((4-(1-methyl-1H-pyrrolo[3,2-b]pyridin-3-yl)pyrimidin-2-yl)amino)phenyl)acrylamide], the figures for the GI50 in test [1] (setting [3]) and in test [2] were 77.5 nM and 5370 nM, respectively. For the molecule `C=CC(=O)Nc1cc(Nc2nccc(-c3cn(C)c4cccnc34)n2)c(OC)cc1N1CCC[C@H]1CN(C)C` [Example 16], the GI50 in test [1] (setting [3]) was 2880 nM; in test [2], 2100 nM. For `C=CC(=O)Nc1cc(Nc2nccc(-c3cn(C)c4cccnc34)n2)c(OC)cc1N1CC2(CCCN2C)C1` [Example 17, N-(4-methoxy-5-((4-(1-methyl-1H-pyrrolo[3,2-b]pyridin-3-yl)pyrimidin-2-yl)amino)-2-(5-methyl-2,5-diazaspiro[3.4]oct-2-yl)phenyl)acrylamide] the same measures were 39.8 nM and 1300 nM. For `C=CC(=O)Nc1cc(Nc2nccc(-c3cn(C)c4cccnc34)n2)c(OC(F)F)cc1N(C)CCN(C)C` [Example 18] the same measures were 6.7 nM and 296 nM. In the case of `C=CC(=O)Nc1cc(Nc2nccc(-c3cn(C)c4cccnc34)n2)c(OC(F)F)cc1N1CCN(C)CC1` [Example 19, N-(4-(difluoromethoxy)-5-((4-(1-methyl-1H-pyrrolo[3,2-b]pyridin-3-yl)pyrimidin-2-yl)amino)-2-(4-methylpiperazin-1-yl)phenyl)acrylamide], the GI50 in test [1] (setting [3]) came to 166 nM; in test [2], 1440 nM.

For the molecule `C=CC(=O)Nc1cc(Nc2nccc(-c3cn(C)c4cccnc34)n2)c(OC(F)F)cc1N1CC(N(C)C)C1` [Example 20, N-(4-(difluoromethoxy)-2-(3-(dimethylamino)azetidin-1-yl)-5-((4-(1-methyl-1H-pyrrolo[3,2-b]pyridin-3-yl)pyrimidin-2-yl)amino)phenyl)acrylamide], the GI50 in test [1] (setting [3]) and in test [2] was more than 1000 nM in each case. As to `C=CC(=O)Nc1cc(Nc2nccc(-c3cn(C)c4cccnc34)n2)c(OC(F)F)cc1N1CCC(N(C)C)CC1` [Example 21, N-(4-(difluoromethoxy)-2-(4-(dimethylamino)piperidin-1-yl)-5-((4-(1-methyl-1H-pyrrolo[3,2-b]pyridin-3-yl)pyrimidin-2-yl)amino)phenyl)acrylamide], the values for the GI50 in test [1] (setting [3]) and in test [2] were 35.9 nM and 319 nM, respectively. For `C=CC(=O)Nc1cc(Nc2nccc(-c3cn(C)c4cccnc34)n2)c(OC(F)F)cc1N1CCC[C@H]1CN(C)C` [Example 22, (S)—N-(4-(difluoromethoxy)-2-(2-((dimethylamino)methyl)pyrrolidin-1-yl)-5-((4-(1-methyl-1H-pyrrolo[3,2-b]pyridin-3-yl)pyrimidin-2-yl)amino)phenyl)acrylamide] the same measures were 184 nM and 724 nM. The like results for `C=CC(=O)Nc1cc(Nc2nccc(-c3cn(C)c4cccnc34)n2)c(OC(F)F)cc1N1CC2(CCCN2C)C1` [Example 23, N-(4-(difluoromethoxy)-5-((4-(1-methyl-1H-pyrrolo[3,2-b]pyridin-3-yl)pyrimidin-2-yl)amino)-2-(5-methyl-2,5diazaspiro[3.4]oct-2-yl)phenyl)acryl amide] were, in that order, 110 nM and 2440 nM.
